Source: the supplement of paper PMC13380429

How the values were obtained:
HepG2 [1] = experiment: relative viability EC50 (midpoint between 100% and the lowest measured viability); higher = less toxic; conditions: 72 h
U2OS [2] = experiment: as above; conditions: 72 h
Caco-2 [3] = experiment: as above; conditions: 72 h
[4] = tested on: A549-ACE2 infected with SARS-CoV-2; experiment: morphology score (similarity to uninfected cells); higher = more like uninfected cells; conditions: 24 h
[5] = tested on: A549-ACE2 infected with SARS-CoV-2; experiment: cell count relative to DMSO; higher = less toxic; conditions: 24 h
HepG2 [6] = experiment: drug sensitivity score (DSS) for viability; higher = more toxic; extreme values may be limits of the assay; conditions: 72 h
Calu-3 [7] = experiment: as above; conditions: 72 h
U2OS [8] = experiment: as above; conditions: 72 h
Caco-2 [9] = experiment: as above; conditions: 72 h
Vero E6 [10] = experiment: as above; conditions: 72 h
HepG2 [11] = experiment: cell viability relative to DMSO; higher = less toxic; conditions: 72 h
Calu-3 [12] = experiment: as above; conditions: 72 h
U2OS [13] = experiment: as above; conditions: 72 h
Caco-2 [14] = experiment: as above; conditions: 72 h
Vero E6 [15] = experiment: as above; conditions: 72 h
A549-ACE2 [16] = experiment: drug-induced phospholipidosis relative to tamoxifen; higher = more phospholipidosis
[17] = tested on: A549-ACE2 infected with SARS-CoV-2; experiment: SARS-CoV-2 infection rate relative to DMSO; higher = more infection; conditions: 24 h
Vero E6 [18] = experiment: relative viability EC50 (midpoint between 100% and the lowest measured viability); higher = less toxic; conditions: 72 h
A549-ACE2 [19] = experiment: phospholipidosis EC50; higher = less potent phospholipidosis inducer
Calu-3 [20] = experiment: relative viability EC50 (midpoint between 100% and the lowest measured viability); higher = less toxic; conditions: 72 h

C=C1C(=O)O[C@@H]2[C@H]3O[C@]3(C)CC/C=C(\C)CC[C@@H]12 [parthenolide-(alternate-stereo)]
Conditions	drug sensitivity score	relative viability EC50 [nM]
Caco-2 [3]	–	2990
Caco-2 [9]	3.07	–
Calu-3 [7]	0.733	–
HepG2 [1]	–	2480
HepG2 [6]	5.27	–
U2OS [2]	–	2940
U2OS [8]	5.23	–
Vero E6 [10]	2.37	–

Conditions	SARS-CoV-2 infection rate, [17] [%]	cell count, [5] [%]	cell viability, Caco-2 [14] [%]	cell viability, Calu-3 [12] [%]	cell viability, HepG2 [11] [%]	cell viability, U2OS [13] [%]	cell viability, Vero E6 [15] [%]	morphology score, [4]
1 nM	–	–	98.5	102	102	100	102	–
10 nM	–	–	95.8	108	95.7	101	99.7	–
0.1 µM	101	101	–	–	–	–	–	0.0167
100 nM	–	–	96.8	97.3	103	99.4	102	–
0.3 µM	99.3	102	–	–	–	–	–	0.157
1 µM	104	100	–	–	–	–	–	-0.0567
1000 nM	–	–	98.67	109	94.2	97.7	102	–
3 µM	105	97.7	–	–	–	–	–	-0.3
10000 nM	–	–	45.4	128	22.5	12.2	52.3	–

drug-induced phospholipidosis [%], A549-ACE2 [16]
Conditions	0.3 µM	0.833333 µM	3.33333 µM	6.66667 µM	10 µM
24 h	1.51	0.313	6.15	18.1	24
48 h	1.04	-0.06	2.1	11.9	16.9
72 h	3.01	-1.59	-0.616	4.96	9.42

COc1ccc2cc(-c3nc(-c4ccc([S+](C)[O-])cc4)[nH]c3-c3ccncc3)ccc2c1 (centres undefined) [tie2-kinase-inhibitor]
Conditions	drug sensitivity score	relative viability EC50
Caco-2 [3]	–	> 10000 nM
Caco-2 [9]	0.1	–
Calu-3 [7]	2.5	–
HepG2 [1]	–	> 10000 nM
HepG2 [6]	1.2	–
U2OS [2]	–	> 10000 nM
U2OS [8]	0.6	–
Vero E6 [10]	0	–
Vero E6 [18]	–	> 10 µM

Conditions	SARS-CoV-2 infection rate [%]	cell count [%]	cell viability [%]	morphology score	phospholipidosis EC50 [µM]
A549-ACE2 [19], 24 h	–	–	–	–	7.52
A549-ACE2 [19], 48 h	–	–	–	–	6.68
Caco-2 [14], 1 nM	–	–	104	–	–
Caco-2 [14], 10 nM	–	–	102	–	–
Caco-2 [14], 100 nM	–	–	108	–	–
Caco-2 [14], 1000 nM	–	–	89.6	–	–
Caco-2 [14], 10000 nM	–	–	97.4	–	–
Calu-3 [12], 1 nM	–	–	104	–	–
Calu-3 [12], 10 nM	–	–	103	–	–
Calu-3 [12], 100 nM	–	–	101	–	–
Calu-3 [12], 1000 nM	–	–	98.1	–	–
Calu-3 [12], 10000 nM	–	–	56.7	–	–
HepG2 [11], 1 nM	–	–	109	–	–
HepG2 [11], 10 nM	–	–	103	–	–
HepG2 [11], 100 nM	–	–	98.6	–	–
HepG2 [11], 1000 nM	–	–	91.7	–	–
HepG2 [11], 10000 nM	–	–	79.9	–	–
U2OS [13], 1 nM	–	–	104	–	–
U2OS [13], 10 nM	–	–	97.3	–	–
U2OS [13], 100 nM	–	–	106	–	–
U2OS [13], 1000 nM	–	–	96.5	–	–
U2OS [13], 10000 nM	–	–	84.6	–	–
Vero E6 [15], 1 nM	–	–	102	–	–
Vero E6 [15], 10 nM	–	–	102	–	–
Vero E6 [15], 100 nM	–	–	97.1	–	–
Vero E6 [15], 1000 nM	–	–	104	–	–
Vero E6 [15], 10000 nM	–	–	98.9	–	–
[4], 0.3 µM	–	–	–	0.15	–
[4], 3 µM	–	–	–	0.39	–
[4], 10 µM	–	–	–	0.69	–
[4], 30 µM	–	–	–	0.58	–
[5], 0.3 µM	–	101	–	–	–
[5], 3 µM	–	114	–	–	–
[5], 10 µM	–	122	–	–	–
[5], 30 µM	–	112	–	–	–
[17], 0.3 µM	98	–	–	–	–
[17], 3 µM	87	–	–	–	–
[17], 10 µM	43	–	–	–	–
[17], 30 µM	59	–	–	–	–

drug-induced phospholipidosis [%], A549-ACE2 [16]
Conditions	0.3 µM	0.833333 µM	3.33333 µM	6.66667 µM	10 µM	30 µM
24 h	3.67	4.27	13.4	35.8	68	86.8
48 h	4.58	3.03	14.7	33.7	65	56.9
72 h	3.91	-0.14	11.2	35.7	69.8	–

CC(C)C[C@H](NC(=O)CNC(=O)c1cc(Cl)ccc1Cl)B1OC(=O)C(CC(=O)O)(CC(=O)O)O1 [ixazomib-citrate]
Conditions	drug sensitivity score	relative viability EC50 [nM]
Caco-2 [9]	25.9	–
Calu-3 [7]	25.5	–
HepG2 [1]	–	358
HepG2 [6]	17.2	–
U2OS [8]	22.4	–
Vero E6 [10]	19.6	–

Conditions	SARS-CoV-2 infection rate, [17] [%]	cell count, [5] [%]	cell viability, Caco-2 [14] [%]	cell viability, Calu-3 [12] [%]	cell viability, HepG2 [11] [%]	cell viability, U2OS [13] [%]	cell viability, Vero E6 [15] [%]	morphology score, [4]
1 nM	–	–	105	107	106	107	106	–
10 nM	–	–	103	103	107	106	102	–
0.1 µM	81	97	–	–	–	–	–	0.41
100 nM	–	–	22.9	27.9	98	69.6	72.5	–
0.3 µM	85	74	–	–	–	–	–	0.25
1 µM	47	69	–	–	–	–	–	0.3
1000 nM	–	–	6.1	5.6	6.3	0.4	11.5	–
3 µM	43	60	–	–	–	–	–	0.28
10000 nM	–	–	7	4.8	0.3	-0.3	4.8	–

Conditions	drug-induced phospholipidosis [%]
A549-ACE2 [16], 0.3 µM, 24 h	5.51

NC(=O)c1ncn([C@@H]2O[C@H](CO)[C@@H](O)[C@H]2O)n1 [ribavirin]
Conditions	drug sensitivity score	relative viability EC50
Caco-2 [3]	–	> 10000 nM
Caco-2 [9]	0.2	–
Calu-3 [7]	0.3	–
Calu-3 [20]	–	> 10000 nM
HepG2 [1]	–	> 10000 nM
HepG2 [6]	0	–
U2OS [2]	–	> 10000 nM
U2OS [8]	0	–
Vero E6 [10]	0	–
Vero E6 [18]	–	> 10 µM

cell viability [%]
Conditions	Caco-2 [14]	Calu-3 [12]	HepG2 [11]	U2OS [13]	Vero E6 [15]
1 nM	109	104	95.7	92	101
10 nM	97.6	108	104	93.8	101
100 nM	108	111	99.8	99.5	98.5
1000 nM	113	88.6	121	95.9	104
10000 nM	82.9	92.9	86.7	113	104

CCCC1(CCC)CCC2(CCN(CCCN(CC)CC)C2)CC1 [atiprimod]
Conditions	drug sensitivity score	relative viability EC50
Caco-2 [3]	–	2660 nM
Caco-2 [9]	5.1	–
Calu-3 [7]	7.7	–
Calu-3 [20]	–	2100 nM
HepG2 [1]	–	1890 nM
HepG2 [6]	8.3	–
U2OS [2]	–	2820 nM
U2OS [8]	5.3	–
Vero E6 [10]	5.9	–
Vero E6 [18]	–	2.38 µM

cell viability [%]
Conditions	Caco-2 [14]	Calu-3 [12]	HepG2 [11]	U2OS [13]	Vero E6 [15]
1 nM	99.2	103	91.1	101	97.9
10 nM	94.7	103	94.8	105	98.7
100 nM	98.4	101	93.2	95.8	101
1000 nM	94.9	86.9	83.3	96.1	92.1
10000 nM	20.7	0.7	0	14.6	16.9
